Experimental data reported in PubChem BioAssay AID2060495 (Molecular Pharmacology Branch, DTP, NCI, 2025).

Test system: 521955-158-R2-J5-PDC complex spheroid viability
Test: Anticancer human tumor 521955-158-R2-J5-PDC patient-derived pancreatic carcinoma cell line growth inhibition [GQUAD]
Details: for IC50: curve of first compound; for viability, T/C: stronger effect = lower value; active means viability on the fitted dose curve at most 10% of control; inactive means the rest
In short: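 Tumor cells were grown as complex spheroids with HUVEC endothelial cells and mesenchymal stem cells as stroma. G-quadruplex stabilizers were combined with targeted agents over half-log dilutions from near the clinical Cmax, or from 10 microM.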

[1] = second compound 0.0316 µM, first compound 0.0316 µM
[2] = second compound 0.0316 µM, first compound 0.1 µM
[3] = second compound 0.0316 µM, first compound 0.316 µM
[4] = second compound 0.0316 µM, first compound 1 µM
[5] = second compound 0.0316 µM, first compound 3.16 µM
[6] = second compound 0.0316 µM, first compound 10 µM
[7] = second compound 0.1 µM, first compound 0.0316 µM
[8] = second compound 0.1 µM, first compound 0.1 µM
[9] = second compound 0.1 µM, first compound 0.316 µM
[10] = second compound 0.1 µM, first compound 1 µM
[11] = second compound 0.1 µM, first compound 3.16 µM
[12] = second compound 0.1 µM, first compound 10 µM
[13] = second compound 0.316 µM, first compound 0.0316 µM
[14] = second compound 0.316 µM, first compound 0.1 µM
[15] = second compound 0.316 µM, first compound 0.316 µM
[16] = second compound 0.316 µM, first compound 1 µM
[17] = second compound 0.316 µM, first compound 3.16 µM
[18] = second compound 0.316 µM, first compound 10 µM
[19] = second compound 1 µM, first compound 0.0316 µM
[20] = second compound 1 µM, first compound 0.1 µM
[21] = second compound 1 µM, first compound 0.316 µM
[22] = second compound 1 µM, first compound 1 µM
[23] = second compound 1 µM, first compound 3.16 µM
[24] = second compound 1 µM, first compound 10 µM
[25] = second compound 3.16 µM, first compound 0.0316 µM
[26] = second compound 3.16 µM, first compound 0.1 µM
[27] = second compound 3.16 µM, first compound 0.316 µM
[28] = second compound 3.16 µM, first compound 1 µM
[29] = second compound 3.16 µM, first compound 3.16 µM
[30] = second compound 3.16 µM, first compound 10 µM
[31] = second compound 10 µM, first compound 0.0316 µM
[32] = second compound 10 µM, first compound 0.1 µM
[33] = second compound 10 µM, first compound 0.316 µM
[34] = second compound 10 µM, first compound 1 µM
[35] = second compound 10 µM, first compound 3.16 µM
[36] = second compound 10 µM, first compound 10 µM
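Further: spheroids exposed to agents for one week before reading.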
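Wherever viability, T/C is given: 100% = DMSO vehicle control viability.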

COc1ncnc(C2CC2)c1-c1ncc2cnn(Cc3ccc(-c4nc(C(F)(F)F)cn4C(C)C)cc3)c2n1 + CN(C)c1ccc(Nc2c3ccc(NC(=O)CCN4CCCC4)cc3nc3cc(NC(=O)CCN4CCCC4)ccc23)cc1
inactive: viability, T/C [1] 113% | viability, T/C [2] 103% | viability, T/C [3] 116% | viability, T/C [4] 114% | viability, T/C [5] 135% | viability, T/C [6] 140% | viability, T/C [7] 97.7% | viability, T/C [8] 112% | viability, T/C [9] 107% | viability, T/C [10] 112% | viability, T/C [11] 148% | viability, T/C [12] 122% | viability, T/C [13] 95.4% | viability, T/C [14] 123% | viability, T/C [15] 118% | viability, T/C [16] 121% | viability, T/C [17] 115% | viability, T/C [18] 117% | viability, T/C [19] 105% | viability, T/C [20] 109% | viability, T/C [21] 115% | viability, T/C [22] 122% | viability, T/C [23] 112% | viability, T/C [24] 115% | viability, T/C [25] 86% | viability, T/C [26] 93% | viability, T/C [27] 101% | viability, T/C [28] 111% | viability, T/C [29] 114% | viability, T/C [30] 82.8% | viability, T/C [31] 74% | viability, T/C [32] 74.7% | viability, T/C [33] 69.5% | viability, T/C [34] 76.7% | viability, T/C [35] 68.1% | viability, T/C [36] 10.3%
> 10 µM: IC50 (second compound 0.0316 µM) | IC50 (second compound 0.1 µM) | IC50 (second compound 0.316 µM) | IC50 (second compound 1 µM) | IC50 (second compound 3.16 µM)
4.55 µM: IC50 (second compound 10 µM)

CCCS(=O)(=O)Nc1ccc(F)c(C(=O)c2c[nH]c3ncc(-c4ccc(Cl)cc4)cc23)c1F + CN(C)c1ccc(Nc2c3ccc(NC(=O)CCN4CCCC4)cc3nc3cc(NC(=O)CCN4CCCC4)ccc23)cc1
active: viability, T/C [36] 2.26%
6.69 µM: IC50 (second compound 3.16 µM)
inactive: viability, T/C [1] 124% | viability, T/C [2] 89.2% | viability, T/C [3] 80.7% | viability, T/C [4] 118% | viability, T/C [5] 271% | viability, T/C [6] 106% | viability, T/C [7] 102% | viability, T/C [8] 84% | viability, T/C [9] 72.4% | viability, T/C [10] 109% | viability, T/C [11] 264% | viability, T/C [12] 106% | viability, T/C [13] 95.5% | viability, T/C [14] 90.1% | viability, T/C [15] 92.5% | viability, T/C [16] 104% | viability, T/C [17] 248% | viability, T/C [18] 98.3% | viability, T/C [19] 95.4% | viability, T/C [20] 76.4% | viability, T/C [21] 76.8% | viability, T/C [22] 171% | viability, T/C [23] 251% | viability, T/C [24] 85.2% | viability, T/C [25] 73% | viability, T/C [26] 83.6% | viability, T/C [27] 61% | viability, T/C [28] 111% | viability, T/C [29] 174% | viability, T/C [30] 22.9% | viability, T/C [31] 69.9% | viability, T/C [32] 68.4% | viability, T/C [33] 111% | viability, T/C [34] 100% | viability, T/C [35] 58%
3.72 µM: IC50 (second compound 10 µM)
> 10 µM: IC50 (second compound 0.0316 µM) | IC50 (second compound 0.1 µM) | IC50 (second compound 0.316 µM) | IC50 (second compound 1 µM)
